The text below walks through data of US8852648B2, “Delivery of biologically-active agents using volatile, hydrophobic solvents” (Rochal Industries, LLP, priority 2012, dated 2014).

Structures are written as SMILES. Entries after “also recorded” stand apart in the source; their conditions may differ. Where a name gives a salt, the structure may show the parent alone. Read-outs that look alike come from different tables or passages of the source.

The conditions of data set [1]: in water; cited from earlier work.
In data set [2] the test system is Pseudomonas aeruginosa, ATCC 27853. Kind of data set: Zone of inhibition, antimicrobials in AOT and Cavilon, TSA plates. The data set is classed as cell-based. The conditions noted are these: for ZOI 24 h / ZOI 48 h / ZOI 72 h: agent with AOT in Cavilon polymer, HMDS/ISO, 0.1 mL per cylinder, Neosporin 100 μL; for ZOI behaviour in words: with AOT in Cavilon polymer, over three days. As to the method: (§1) All microbiological testing was done by INCELL Corporation, San Antonio, Tex. All zones of inhibition data were measured in mm.
(§2) The zones of inhibition testing for methicillin-resistant Staphylococcus aureus and Pseudomonas aeruginosa were performed as described below. The bacteria were purchased from ATCC and expanded in Tryptic soy broth overnight. Each of the bacteria cultures was then spread onto Tryptic soy agar (TSA) plates. Sterile cloning cylinders containing the biologically-active agent in a volatile, hydrophobic solvent (0.1 mL per cylinder) were placed on the TSA plates and allowed to air dry for 1 h at room temperature. Neosporin was used as a positive control. The TSA plates were observed and photographed after 24 h, 48 h, and 72 h. Images were used to measure zone of inhibition or areas of clearing surrounding the delivered material.
(§3) The polymer substrate chosen for the sustained release studies of biologically-active antimicrobial over time was Cavilon. The Cavilon solution is composed of a proprietary acrylate polymer and a smaller amount of polyphenylmethylsiloxane in HMDS and ISO. This was used as a negative control for all zone of inhibition studies (Tables 8-10).

Data set [3] has as its system methicillin-resistant Staphylococcus aureus, ATCC 700787. The description is as above. The data set is classed as cell-based. As to the method: as §1, §2, §3
In data set [4] the test system is Candida albicans, ATCC 10231. The data set is described as above. The data set is classed as cell-based. The following applies: for ZOI 24 h / ZOI 48 h / ZOI 72 h: agent with AOT in Cavilon polymer, HMDS/ISO, 0.1 mL per cylinder, Roccal 1 %. As to the method: as §1
The zones of inhibition testing was also performed with Candida albicans, purchased from ATCC and expanded in Tryptic soy broth overnight. This fungi culture was diluted to 0.1 OD 600 units and spread onto TSA plates. Sterile cloning cylinders were placed on the TSA plates, charged with the biologically-active agent in a volatile, hydrophobic solvent (0.1 mL per cylinder) and allowed to air dry for 1 h at room temperature. A 1% Roccal solution was used as a positive control. The TSA plates were observed and photographed after 24 h, 48 h, and 72 h. Images were used to measure zone of inhibition or areas of clearing surrounding the delivered material.
as §3

In data set [5] the test system is L929 mouse fibroblast cell. Kind of data set: Cytotoxicity testing, agar overlay with neutral red. The conditions noted are these: for Zone Size / Grade (biological reactivity): 0.05 wt % AOT in Cavilon; for Zone Size: applied to agar surface; for Grade (biological reactivity): scale Grade 0 to Grade 4. As to the method:
Also of consideration for application to animal and human skin is the potential of toxicity to mammalian cells for reverse emulsion surfactants such as AOT. […] […] Cavilon solution without AOT was used as a negative control.
The biological reactivity of L929 mouse fibroblast cell in response to the AOT Cavilon solution was determined. The monolayer of fibroblasts was cultured in an agar plate, and the cell viability was evaluated using a vital dye (neutral red). The AOT Cavilon solution was applied directly to the surface of the agar. Positive (Buna-N-Rubber) and negative (Negative Control Plastic, Cavilon solution) control articles were prepared to verify the proper functioning of the test system. The cultures were incubated at 37±1° C., in a humidified atmosphere containing 5±1% carbon dioxide. Zone of inhibition was measured, and biological reactivity (cellular degeneration and malformation) was rated on a scale from Grade 0 (No reactivity) to Grade 4 (Severe reactivity) at 24 and 48 hours. The experiment was run in triplicate.

Data set [6] has as its system albino rabbits. Kind of data set: Animal skin-irritation study, Draize scoring. The data set is classed as in vivo, rabbit. The conditions noted are these: Cavilon solution containing 0.5 wt % AOT. How it is done:
Another concern with the use of a reverse emulsion surfactant for its application to mammalian skin is its potential to cause skin irritation. It has been reported that in water solution AOT can be irritating to skin (M. Changez and M. Varshney, Drug Development and Industrial Pharmacy, 26(5), 507-512 (2000)). To test if AOT is skin-irritating when used in a volatile, hydrophobic solvent with the presence of polymer, an animal skin-irritation study was conducted by Toxikon Corporation, Cavilon solution containing 0.5 wt % AOT was examined, and Cavilon solution was used as a negative control.
Three albino rabbits were used for the skin irritation study. The application sites were prepared by clipping the skin of the trunk free of hair within 24 h before application of the test and control substances. The animals were treated by applying an AOT-containing Cavilon solution and the Cavilon negative control (0.5 mL) directly onto skin over a skin area of approximate 6 cm^2. The test solution was applied to the skin on the left side of the spine and the control solution was applied to the skin on the right side of the spine. The AOT solution and the negative control were each applied sequentially to three sites, and observed at 6, 24, 48, and 72 h for signs of erythema and edema. Observations were scored according to the Draize Scale for Scoring. […]

The subject of data set [7] is Gram positive bacteria such as Staphylococcus aureus. The following applies: reported, G. N. Kern; cited from earlier work.
The test system of data set [8] is Gram negative bacteria such as Pseudomonas aeruginosa. The conditions noted are these: reported, G. N. Kern; cited from earlier work.
Data set [9] relates to Candida albicans. The following applies: reported, G. N. Kern; cited from earlier work.
For data set [10], the system named is mammalian cells such as fibroblasts, kidney cells, and cancer cells. The conditions noted are these: in water solution; cited from earlier work.
The conditions of data set [11]: in water solution; cited from earlier work.
Data set [12] is described as follows: Solubility in non-polar hydrophobic solvents ISO and HMDS. The data set is classed as physicochemical. The following applies: without reverse emulsion surfactant. The source says: For all formulations in the following Examples, each biologically-active agent was inherently insoluble in the non-polar, hydrophobic solvents tested, namely, isooctane (ISO) and hexamethyldisiloxane (HMDS). Solubility occurred in the presence of a reverse emulsion surfactant, with or without the presence of added water, to give optically clear, homogeneous solutions. Since the concentrations of the biologically-active agents (Active) were considerably less than that of the solvent used, the data in the Tables pertaining to all ingredients were rounded-off to the next highest number.

Setting [13] is: 24 h, agent with AOT in Cavilon polymer, HMDS/ISO, 0.1 mL per cylinder, Neosporin 100 μL.
[14] abbreviates: 48 h, agent with AOT in Cavilon polymer, HMDS/ISO, 0.1 mL per cylinder, Neosporin 100 μL.
The mark [15] stands for this setting: 72 h, agent with AOT in Cavilon polymer, HMDS/ISO, 0.1 mL per cylinder, Neosporin 100 μL.
Setting [16] is: with AOT in Cavilon polymer, over three days.

As for `CCCCC(CC)CNC(=N)NC(=N)NCCCCCCNC(=N)NC(=N)NCC(CC)CCCC` (stereo not shown) [ALEX, 1,1′-hexamethylenebis[5-(2-ethylhexyl)biguanide]dihydrochloride], the water solubility in [1] is listed as 0.1%.
For the compound `CCCCC(CC)COC(=O)CC(C(=O)OCC(CC)CCCC)S(=O)(=O)[O-].[Na+]` (stereo not shown) [AOT, sodium bis(2-ethylhexyl)sulfosuccinate], in data set [2], the “ZOI 24 h” value is 8.18 mm, the “ZOI 48 h” value is given as 8.22 mm, the “ZOI 72 h” value turned out to be 11.2 mm and the “ZOI behaviour in words” value is “considerably more effective against Pseudomonas aeruginosa than Neosporin; also recorded: highly effective”. Besides, in data set [3], the “ZOI 24 h” value is recorded as 5.34 mm, the “ZOI 48 h” value is listed as 6.3 mm, the “ZOI 72 h” value came out at 5.32 mm and the “ZOI behaviour in words” value is on record as “active”. Also, in [4], the “ZOI 24 h” value is recorded as 12.7 mm, the “ZOI 48 h” value is given as 12.4 mm and the “ZOI 72 h” value was 13.3 mm. Besides, in data set [5] (24 hours), the “Zone Size” value came out at 0 cm and the “Grade (biological reactivity)” value is recorded as 0. In addition, in [5] (48 hours), the “Zone Size” value was 0 cm and the “Grade (biological reactivity)” value came out at 0. Further, the “toxicity to mammalian cells, in words” value in [5] (AOT Cavilon solution, 0.5 wt % AOT) was “not toxic”. For the same compound, the “signs of erythema or edema” value in data set [6] (0.5 mL on skin, observed at 6, 24, 48, and 72 h) is recorded as “None of the AOT solution sites presented any signs of erythema or edema”. In addition, the skin irritation classification result in data set [6] (Draize Scale) is “non-irritant”. Moreover, in [7], the “antibacterial activity, in words” value was “active”. Moreover, in [8], the “antibacterial activity, in words” value is “inactive”. In addition, the “antifungal activity, in words” value in [9] was “effective”. Also, the cytotoxic concentration in [10] is recorded as 0.002 wt %. Moreover, in data set [11], the “skin irritation, in words” value was “irritating”.
`O=[N+]([O-])[O-].[Ag+]` [AgNO3, Silver Nitrate]: the “ZOI 24 h” value in data set [3] (setting [13]) is 8.16 mm. Further, the “ZOI 48 h” value in data set [3] (setting [14]) came to 9 mm. Also, the “ZOI 72 h” value in data set [3] (setting [15]) was 8.18 mm. Moreover, in data set [3] (setting [16]), the “ZOI behaviour in words” value is given as “highly effective”.
With `N=C(NCCCCCCNC(=N)NC(=N)Nc1ccc(Cl)cc1)NC(=N)Nc1ccc(Cl)cc1.O=C(O)[C@H](O)[C@@H](O)[C@H](O)[C@H](O)CO.O=C(O)[C@H](O)[C@@H](O)[C@H](O)[C@H](O)CO` [CHG, Chlorhexidine Digluconate], the results for the “ZOI 24 h” value in data set [2] and in [3] (setting [13]) were 2.77 mm and 11.53 mm, respectively. For the same compound, the “ZOI 48 h” value in data set [2] stood at 0 mm; in [3] (setting [14]), 11.03 mm. The results for the “ZOI 72 h” value in [2] and in [3] (setting [15]) were 0 mm and 11.67 mm, respectively. Besides, the “ZOI behaviour in words” value in [2] is recorded as “less effective”; in [3] (setting [16]), “exceptional results”. The water solubility in [1] is recorded as 20%.
Consider `Clc1ccc(COC(Cn2ccnc2)c2ccc(Cl)cc2Cl)c(Cl)c1` (stereo not shown) [MICON, Miconazole Nitrate], for which, in data set [4], the “ZOI 24 h” value is listed as 16.5 mm, the “ZOI 48 h” value came to 14.9 mm and the “ZOI 72 h” value was 15 mm. Further, the “ZOI behaviour in words” value in data set [4] (setting [16]) is “superior to that of AOT by itself and PHMB with AOT”.
Take `NC[C@@H]1O[C@H](O[C@@H]2[C@@H](CO)OC(O[C@@H]3[C@@H](O)[C@H](N)C[C@H](N)[C@H]3OC3O[C@H](CN)[C@@H](O)[C@H](O)[C@H]3N)[C@@H]2O)[C@H](N)[C@@H](O)[C@@H]1O` (stereo partly shown) [NEO, Neomycin Trisulfate]: the “ZOI 24 h” value was 7.43 mm in data set [2] and 8.95 mm in data set [3] (setting [13]). The “ZOI 48 h” value in [2] is listed as 6.41 mm; in data set [3] (setting [14]), 8.94 mm. In addition, the figures for the “ZOI 72 h” value in data set [2] and in data set [3] (setting [15]) were 7.61 mm and 9.71 mm, respectively. For the same compound, the “ZOI behaviour in words” value in data set [3] (setting [16]) is on record as “highly effective”.
As to `CCCCCCCCCCCC(=O)[O-].[Na+]` [SL, sodium dodecanoate], in data set [12], the “solubility in isooctane (ISO) and hexamethyldisiloxane (HMDS)” value is on record as “insoluble”.
